Experimental data as given in paper PMC11683478, “Bioprospecting of culturable marine biofilm bacteria for novel antimicrobial peptides” (iMeta, 2024).
Where no end group is shown, it is not given here.

What was measured:
[1] = test system: Acinetobacter baumannii ATCC 19606; experiment: Antibacterial screen at 200 μg/mL (cell density vs control); assay type: cell-based; settings: peptide 200 μg/mL, CAMHB, 5 × 10^5 CFU/mL, 37°C, 12 h, OD600; control (no AMP) = 1; three biological replicates
Description: (§1) Eight bacterial strains were utilized in the antibacterial experiment. S. aureus ATCC 12600, B. subtilis ATCC 23857, E. coli ATCC 11775, and A. baumannii ATCC 19606 were purchased from Shanghai Beinuo Biology. M. luteus ATCC 4698 and S. bongori ATCC43975 were purchased from Shanghai Beisi Biotechnology. V. owensii ems001 and V. alginolyticus xv22 from the intestines of diseased shrimps were isolated in our laboratory. All strains were cultured in the cation‐adjusted Mueller‐Hinton broth (CAMHB) at 37°C to the logarithmic growth phase (OD600 = 0.5). Then, bacteria were gradient‐diluted using fresh CAMHB to a bacterial density of 5 × 10^5 CFU/mL. Antibacterial experiments were performed in a 96‐well plate with 200 μg/mL final peptide concentration. Four experimental groups were set up, including a blank control (200 μL CAMHB), a negative control (180 μL CAMHB plus 20 μL peptide), a positive control (180 μL bacterial culture plus 20 μL ultrapure water), and an experimental group (180 μL bacterial culture plus 20 μL peptide). Three biological replicates were conducted for each group, and OD600 values were measured after incubation at 37°C for 12 h. Every observed value was removed from the blank control group value. The value of the experimental group was then subtracted from the value of the negative control group therefore eradicating the effect of the peptide on the OD measurement. Student's t‐test allowed the estimation of a notable variation between the experimental and positive groups using a p‐value of 0.05 as the limit. […] The MIC of a peptide against a bacterium was determined as the minimum peptide concentration at which there was no visible bacterial growth.

[2] = test system: Bacillus subtilis ATCC 23857; experiment: as above; assay type: cell-based; settings: peptide 200 μg/mL, CAMHB, 5 × 10^5 CFU/mL, 37°C, 12 h, OD600; control (no AMP) = 1; three biological replicates
Description: as §1

[3] = test system: Escherichia coli ATCC 11775; experiment: as above; assay type: cell-based; settings: peptide 200 μg/mL, CAMHB, 5 × 10^5 CFU/mL, 37°C, 12 h, OD600; control (no AMP) = 1; three biological replicates
Description: as §1

[4] = test system: Micrococcus luteus ATCC 4698; experiment: as above; assay type: cell-based; settings: peptide 200 μg/mL, CAMHB, 5 × 10^5 CFU/mL, 37°C, 12 h, OD600; control (no AMP) = 1; three biological replicates
Description: as §1

[5] = test system: Salmonella bongori ATCC 43975; experiment: as above; assay type: cell-based; settings: peptide 200 μg/mL, CAMHB, 5 × 10^5 CFU/mL, 37°C, 12 h, OD600; control (no AMP) = 1; three biological replicates
Description: as §1

[6] = test system: Staphylococcus aureus ATCC 12600; experiment: as above; assay type: cell-based; settings: peptide 200 μg/mL, CAMHB, 5 × 10^5 CFU/mL, 37°C, 12 h, OD600; control (no AMP) = 1; three biological replicates
Description: as §1

[7] = test system: Vibrio alginolyticus xv22; experiment: as above; assay type: cell-based; settings: peptide 200 μg/mL, CAMHB, 5 × 10^5 CFU/mL, 37°C, 12 h, OD600; control (no AMP) = 1; three biological replicates
Description: as §1

Vibrio owensii ems001 = experiment: as above; assay type: cell-based; settings: peptide 200 μg/mL, CAMHB, 5 × 10^5 CFU/mL, 37°C, 12 h, OD600; control (no AMP) = 1; three biological replicates
Description: as §1

sheep red blood cells = settings: red cells of sheep, 1 h
Description: Freshly collected sheep blood was centrifuged at 3000 rpm for 10 min, and the supernatant was removed. The pellet was washed and resuspended with normal saline water to produce a 2% blood cell solution. Then, 400 μL of peptide solution was added to 100 μL of 2% blood cell solution to achieve final peptide concentrations of 8, 16, 32, 64, and 128 μg/mL. Normal saline water and Triton X‐100 normal saline solution (2%) were used as negative and positive controls, respectively. The samples were incubated in a water bath at 37°C for 1 h, followed by centrifugation at 3000 rpm for 10 min. Then, 200 μL of the supernatant was transferred to a 96‐well plate, and OD values were measured at a wavelength of 545 nm. The hemolysis rate of each sample was calculated using the following formula: Hemolysis ratio=OD545(experimental)−OD545(negative control)/OD545(positive control)−OD545(negative control)×100%.

Row | Sequence | cell density relative to control, A. baumannii ATCC 19606 [1] | cell density relative to control, B. subtilis ATCC 23857 [2] | cell density relative to control, E. coli ATCC 11775 [3] | cell density relative to control, M. luteus ATCC 4698 [4] | cell density relative to control, S. bongori ATCC 43975 [5] | cell density relative to control, S. aureus ATCC 12600 [6] | cell density relative to control, V. alginolyticus xv22 [7] | cell density relative to control, V. owensii ems001 (Vibrio owensii ems001) | Hemolysis ratio (%) at 8μg/mL (sheep red blood cells) | Hemolysis ratio (%) at 16μg/mL (sheep red blood cells) | Hemolysis ratio (%) at 32μg/mL (sheep red blood cells) | Hemolysis ratio (%) at 64μg/mL (sheep red blood cells)
1 | MRPCMCRIGGGH [Cand-13, chemically synthesized candidate AMP predicted from marine biofilm bacteria] | 0.816 | 1 | 1 | 1 | 0.926 | 0.795 | 0.942 | 1 | – | – | – | –
2 | MRHNMCRIGGRL [Cand-203, chemically synthesized candidate AMP predicted from marine biofilm bacteria] | 1 | 1 | 1 | 0.966 | 0.825 | 1 | 0.004 | 1 | – | – | – | –
3 | MRPKKWLKKPKPRPKKWPTK [Cand-210] | – | – | – | – | – | – | – | – | 0.520% | 0.079% | 0.689% | 1.792%
4 | MPASRRCRPCCRLSGC [Cand-7, chemically synthesized candidate AMP predicted from marine biofilm bacteria] | 1 | 0.065 | 0.989 | 1 | 1 | 0.01 | 0.016 | 0.114 | – | – | – | –
5 | MKRLKKCVLSSLSI [Cand-126, chemically synthesized candidate AMP predicted from marine biofilm bacteria] | 0.191 | 0.301 | 0.448 | 0 | 0.299 | 0 | 0.039 | 1 | – | – | – | –
6 | MWWSKSIHQACFTRYRGYCRWCCTFSIRSCRY [Cand-3, chemically synthesized candidate AMP predicted from marine biofilm bacteria] | 0.702 | 1 | 0.786 | 1 | 0.438 | 0 | 0 | 0 | – | – | – | –
7 | MTWPSRSRMWRTC [Cand-129, chemically synthesized candidate AMP predicted from marine biofilm bacteria] | 1 | 0.061 | 0.692 | 0.751 | 0.704 | 0.012 | 0.004 | 0.021 | – | – | – | –
8 | MSPCLKGVIRSAVKSLHR [Cand-53] | – | – | – | – | – | – | – | – | 2.990% | 2.497% | 3.703% | 3.585%
9 | MWTVRPRICAARGRL [Cand-172, chemically synthesized candidate AMP predicted from marine biofilm bacteria] | 1 | 0 | 1 | 0.9 | 0.898 | 0 | 0 | 0 | – | – | – | –
